Measurements: a compilation of properties of binary mixtures (doi:10.1016/j.jct.2023.107038)

Test: xn = mol fraction of the nth substance listed
Details: 96.7 kPa

Structure (SMILES): OCC(F)(F)F + CC(=O)[O-].CC[n+]1ccn(C)c1
- viscosity (293.15 K, x1 = 0.048): 157 mPa·s
- viscosity (293.15 K, x1 = 0.103): 138 mPa·s
- viscosity (293.15 K, x1 = 0.298): 69 mPa·s
- viscosity (293.15 K, x1 = 0.402): 46.1 mPa·s
- viscosity (293.15 K, x1 = 0.801): 6.2 mPa·s
- viscosity (293.15 K, x1 = 1): 2.01 mPa·s
- viscosity (298.15 K, x1 = 0.103): 104 mPa·s
- viscosity (298.15 K, x1 = 0.204): 75 mPa·s
- viscosity (298.15 K, x1 = 0.298): 54 mPa·s
- viscosity (298.15 K, x1 = 0.603): 14.6 mPa·s
- viscosity (298.15 K, x1 = 0.801): 5.5 mPa·s
- viscosity (298.15 K, x1 = 1): 1.8 mPa·s
- viscosity (303.15 K, x1 = 0.103): 79 mPa·s
- viscosity (303.15 K, x1 = 0.204): 59 mPa·s
- viscosity (303.15 K, x1 = 0.298): 42.9 mPa·s
- viscosity (303.15 K, x1 = 0.603): 12.4 mPa·s
- viscosity (303.15 K, x1 = 0.801): 4.85 mPa·s
- viscosity (303.15 K, x1 = 1): 1.59 mPa·s
- viscosity (308.15 K, x1 = 0.048): 67 mPa·s
- viscosity (308.15 K, x1 = 0.103): 61 mPa·s
- viscosity (308.15 K, x1 = 0.298): 34.7 mPa·s
- viscosity (308.15 K, x1 = 0.402): 24.2 mPa·s
- viscosity (308.15 K, x1 = 0.603): 11 mPa·s
- viscosity (308.15 K, x1 = 0.801): 4.32 mPa·s
- viscosity (308.15 K, x1 = 1): 1.41 mPa·s
- viscosity (313.15 K, x1 = 0.048): 53 mPa·s
- viscosity (313.15 K, x1 = 0.103): 48.5 mPa·s
- viscosity (313.15 K, x1 = 0.204): 37.7 mPa·s
- viscosity (313.15 K, x1 = 0.298): 28.5 mPa·s
- viscosity (313.15 K, x1 = 0.402): 21.1 mPa·s
- viscosity (313.15 K, x1 = 0.603): 9.5 mPa·s
- viscosity (318.15 K, x1 = 0.048): 42.2 mPa·s
- viscosity (318.15 K, x1 = 0.103): 39.2 mPa·s
- viscosity (318.15 K, x1 = 0.204): 30.6 mPa·s
- viscosity (318.15 K, x1 = 0.298): 23.7 mPa·s
- viscosity (318.15 K, x1 = 0.402): 17.6 mPa·s
- viscosity (318.15 K, x1 = 0.801): 3.54 mPa·s
- viscosity (318.15 K, x1 = 1): 1.1 mPa·s
- viscosity (323.15 K, x1 = 0.048): 34.3 mPa·s
- viscosity (323.15 K, x1 = 0.103): 31.6 mPa·s
- viscosity (323.15 K, x1 = 0.204): 25.6 mPa·s
- viscosity (323.15 K, x1 = 0.298): 20 mPa·s
- viscosity (323.15 K, x1 = 0.603): 7.4 mPa·s
- viscosity (323.15 K, x1 = 1): 1.01 mPa·s
- viscosity (328.15 K, x1 = 0.048): 28.4 mPa·s
- viscosity (328.15 K, x1 = 0.103): 26.5 mPa·s
- viscosity (328.15 K, x1 = 0.204): 21.4 mPa·s
- viscosity (328.15 K, x1 = 0.402): 12.9 mPa·s
- viscosity (328.15 K, x1 = 0.603): 6.5 mPa·s
- viscosity (328.15 K, x1 = 0.801): 2.94 mPa·s
- viscosity (328.15 K, x1 = 1): 0.93 mPa·s
- viscosity (333.15 K, x1 = 0.048): 23.7 mPa·s
- viscosity (333.15 K, x1 = 0.204): 18.2 mPa·s
- viscosity (333.15 K, x1 = 0.298): 14.5 mPa·s
- viscosity (333.15 K, x1 = 0.402): 11.3 mPa·s
- viscosity (333.15 K, x1 = 0.801): 2.69 mPa·s

Structure (SMILES): OCC(F)(F)F + CC[n+]1ccn(C)c1.O=S(=O)([N-]S(=O)(=O)C(F)(F)F)C(F)(F)F
- viscosity (293.15 K, x1 = 0.099): 32.5 mPa·s
- viscosity (293.15 K, x1 = 0.204): 25.7 mPa·s
- viscosity (293.15 K, x1 = 0.599): 8.3 mPa·s
- viscosity (293.15 K, x1 = 1): 2.01 mPa·s
- viscosity (298.15 K, x1 = 0.051): 30.2 mPa·s
- viscosity (298.15 K, x1 = 0.099): 27.4 mPa·s
- viscosity (298.15 K, x1 = 0.204): 23.1 mPa·s
- viscosity (298.15 K, x1 = 0.303): 17.7 mPa·s
- viscosity (298.15 K, x1 = 0.396): 13.5 mPa·s
- viscosity (298.15 K, x1 = 0.599): 7.3 mPa·s
- viscosity (298.15 K, x1 = 0.799): 3.53 mPa·s
- viscosity (298.15 K, x1 = 1): 1.8 mPa·s
- viscosity (303.15 K, x1 = 0.051): 25.7 mPa·s
- viscosity (303.15 K, x1 = 0.099): 23.4 mPa·s
- viscosity (303.15 K, x1 = 0.204): 19.6 mPa·s
- viscosity (303.15 K, x1 = 0.303): 15.3 mPa·s
- viscosity (303.15 K, x1 = 0.396): 11.7 mPa·s
- viscosity (303.15 K, x1 = 0.799): 3.16 mPa·s
- viscosity (303.15 K, x1 = 1): 1.59 mPa·s
- viscosity (308.15 K, x1 = 0.051): 22 mPa·s
- viscosity (308.15 K, x1 = 0.099): 20 mPa·s
- viscosity (308.15 K, x1 = 0.303): 13.5 mPa·s
- viscosity (308.15 K, x1 = 0.396): 10.3 mPa·s
- viscosity (308.15 K, x1 = 0.599): 5.8 mPa·s
- viscosity (308.15 K, x1 = 0.799): 2.96 mPa·s
- viscosity (313.15 K, x1 = 0.099): 17.6 mPa·s
- viscosity (313.15 K, x1 = 0.204): 14.3 mPa·s
- viscosity (313.15 K, x1 = 0.303): 11.8 mPa·s
- viscosity (313.15 K, x1 = 0.599): 5.2 mPa·s
- viscosity (313.15 K, x1 = 0.799): 2.68 mPa·s
- viscosity (313.15 K, x1 = 1): 1.26 mPa·s
- viscosity (318.15 K, x1 = 0.051): 16.5 mPa·s
- viscosity (318.15 K, x1 = 0.099): 15.2 mPa·s
- viscosity (318.15 K, x1 = 0.204): 13.1 mPa·s
- viscosity (318.15 K, x1 = 0.303): 10.3 mPa·s
- viscosity (318.15 K, x1 = 0.396): 8.2 mPa·s
- viscosity (318.15 K, x1 = 0.799): 2.47 mPa·s
- viscosity (318.15 K, x1 = 1): 1.1 mPa·s
- viscosity (323.15 K, x1 = 0.051): 14.5 mPa·s
- viscosity (323.15 K, x1 = 0.204): 11.5 mPa·s
- viscosity (323.15 K, x1 = 0.303): 9.4 mPa·s
- viscosity (323.15 K, x1 = 0.396): 7.3 mPa·s
- viscosity (323.15 K, x1 = 0.599): 4.3 mPa·s
- viscosity (323.15 K, x1 = 0.799): 2.27 mPa·s
- viscosity (323.15 K, x1 = 1): 1.01 mPa·s
- viscosity (328.15 K, x1 = 0.051): 12.7 mPa·s
- viscosity (328.15 K, x1 = 0.099): 11.8 mPa·s
- viscosity (328.15 K, x1 = 0.204): 10.1 mPa·s
- viscosity (328.15 K, x1 = 0.303): 8.4 mPa·s
- viscosity (328.15 K, x1 = 0.396): 6.8 mPa·s
- viscosity (328.15 K, x1 = 0.599): 3.92 mPa·s
- viscosity (328.15 K, x1 = 1): 0.93 mPa·s
- viscosity (333.15 K, x1 = 0.051): 11.4 mPa·s
- viscosity (333.15 K, x1 = 0.099): 10.7 mPa·s
- viscosity (333.15 K, x1 = 0.204): 9.3 mPa·s
- viscosity (333.15 K, x1 = 0.303): 7.6 mPa·s
- viscosity (333.15 K, x1 = 0.599): 3.59 mPa·s
- viscosity (333.15 K, x1 = 0.799): 1.95 mPa·s

Structure (SMILES): CC(=O)[O-].CC[n+]1ccn(C)c1 + OCC(F)(F)F
- viscosity (293.15 K, x2 = 0): 181 mPa·s
- viscosity (298.15 K, x2 = 0): 135 mPa·s
- viscosity (303.15 K, x2 = 0): 100 mPa·s
- viscosity (308.15 K, x2 = 0): 76 mPa·s
- viscosity (323.15 K, x2 = 0): 38.5 mPa·s
- viscosity (328.15 K, x2 = 0): 31.4 mPa·s
- viscosity (333.15 K, x2 = 0): 26 mPa·s

Structure (SMILES): CC[n+]1ccn(C)c1.O=S(=O)([N-]S(=O)(=O)C(F)(F)F)C(F)(F)F + OCC(F)(F)F
- viscosity (293.15 K, x2 = 0): 39.2 mPa·s
- viscosity (298.15 K, x2 = 0): 32.9 mPa·s
- viscosity (303.15 K, x2 = 0): 27.8 mPa·s
- viscosity (318.15 K, x2 = 0): 17.6 mPa·s
- viscosity (323.15 K, x2 = 0): 15.4 mPa·s
- viscosity (328.15 K, x2 = 0): 13.6 mPa·s
- viscosity (333.15 K, x2 = 0): 12.2 mPa·s
